Measured values taken from paper PMC4119213 (Translational Psychiatry, 2014).

Legend:
[1] = target: hMOR (human μ-opioid receptor) (Homo sapiens, UniProt P35372); assay: radioligand displacement
[2] = target: KOR (human κ-opioid receptor, PDSP binding) (Homo sapiens, UniProt P41145); assay: radioligand displacement; details: n=4
[3] = target: mDOR (mouse δ-opioid receptor) (Mus musculus, UniProt P32300); assay: BRET G-protein activation, HEK-293T; assay type: cell-based
[4] = target: hDOR (human δ-opioid receptor) (Homo sapiens, UniProt P41143); assay: radioligand displacement
hDOR (human δ-opioid receptor), sequence (P41143 whole entry): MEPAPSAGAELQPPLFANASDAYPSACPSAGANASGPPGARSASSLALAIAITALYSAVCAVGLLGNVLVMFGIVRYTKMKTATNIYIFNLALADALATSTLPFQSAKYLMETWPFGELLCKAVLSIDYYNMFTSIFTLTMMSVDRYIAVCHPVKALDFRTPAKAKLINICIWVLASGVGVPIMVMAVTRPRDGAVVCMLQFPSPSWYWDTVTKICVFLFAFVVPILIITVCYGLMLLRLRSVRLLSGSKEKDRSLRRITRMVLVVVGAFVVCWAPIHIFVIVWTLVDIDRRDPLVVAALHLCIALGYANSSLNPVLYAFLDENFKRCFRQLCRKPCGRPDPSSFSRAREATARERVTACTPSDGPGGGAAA

[5] = target: rKOR (rat κ-opioid receptor) (Rattus norvegicus, UniProt P34975); assay: BRET CAMYEL cAMP assay, HEK-293T; assay type: cell-based
rKOR (rat κ-opioid receptor), sequence (P34975 whole entry): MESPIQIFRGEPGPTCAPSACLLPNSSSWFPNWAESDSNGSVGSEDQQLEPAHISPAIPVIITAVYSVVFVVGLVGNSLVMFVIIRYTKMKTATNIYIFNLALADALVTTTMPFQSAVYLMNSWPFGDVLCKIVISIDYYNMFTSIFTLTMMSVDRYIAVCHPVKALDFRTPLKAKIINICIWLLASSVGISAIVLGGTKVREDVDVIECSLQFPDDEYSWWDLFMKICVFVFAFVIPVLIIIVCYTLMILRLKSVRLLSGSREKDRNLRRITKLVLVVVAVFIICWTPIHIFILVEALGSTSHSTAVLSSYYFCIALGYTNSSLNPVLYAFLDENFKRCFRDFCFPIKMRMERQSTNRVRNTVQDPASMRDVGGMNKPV

KOR (human κ-opioid receptor, PDSP binding), sequence (P41145 whole entry): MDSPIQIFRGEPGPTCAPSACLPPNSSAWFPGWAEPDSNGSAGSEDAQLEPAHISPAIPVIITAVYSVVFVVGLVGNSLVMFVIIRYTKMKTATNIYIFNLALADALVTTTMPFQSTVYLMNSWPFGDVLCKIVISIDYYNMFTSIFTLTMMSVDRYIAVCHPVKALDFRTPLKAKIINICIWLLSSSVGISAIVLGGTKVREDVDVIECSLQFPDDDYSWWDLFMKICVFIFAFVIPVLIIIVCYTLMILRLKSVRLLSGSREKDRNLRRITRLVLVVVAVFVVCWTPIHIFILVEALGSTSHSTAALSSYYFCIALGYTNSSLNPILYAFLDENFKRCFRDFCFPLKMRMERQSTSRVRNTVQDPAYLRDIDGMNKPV
hMOR (human μ-opioid receptor), sequence (P35372 whole entry): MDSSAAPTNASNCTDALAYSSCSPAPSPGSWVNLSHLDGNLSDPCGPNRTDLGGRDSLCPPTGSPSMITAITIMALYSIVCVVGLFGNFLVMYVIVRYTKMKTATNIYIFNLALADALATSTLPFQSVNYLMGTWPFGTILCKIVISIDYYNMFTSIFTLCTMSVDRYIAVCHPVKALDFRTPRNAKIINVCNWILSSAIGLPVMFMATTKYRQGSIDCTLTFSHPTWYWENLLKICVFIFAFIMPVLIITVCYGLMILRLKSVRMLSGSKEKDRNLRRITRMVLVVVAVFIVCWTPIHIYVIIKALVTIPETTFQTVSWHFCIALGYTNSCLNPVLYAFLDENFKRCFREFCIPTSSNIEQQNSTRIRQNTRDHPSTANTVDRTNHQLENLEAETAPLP
mDOR (mouse δ-opioid receptor), sequence (P32300 whole entry): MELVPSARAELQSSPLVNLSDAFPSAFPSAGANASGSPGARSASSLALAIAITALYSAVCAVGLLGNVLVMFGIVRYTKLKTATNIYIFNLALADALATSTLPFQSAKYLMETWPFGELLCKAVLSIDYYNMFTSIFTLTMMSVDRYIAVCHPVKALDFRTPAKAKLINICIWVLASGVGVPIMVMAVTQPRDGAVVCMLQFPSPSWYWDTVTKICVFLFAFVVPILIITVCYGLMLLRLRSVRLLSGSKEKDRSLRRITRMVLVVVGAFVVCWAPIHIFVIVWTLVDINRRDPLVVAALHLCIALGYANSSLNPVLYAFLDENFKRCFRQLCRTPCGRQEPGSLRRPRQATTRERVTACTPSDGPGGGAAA

For CN1c2ccccc2C(NCCCCCCC(=O)O)c2ccc(Cl)cc2S1(=O)=O (centres unmarked) [tianeptine], the Ki [1] was 383 ± 183 nM, the Ki [2] was “Kis were determined at MOR, as well as at DOR and KOR” and the EC50 [3] was 14.5 ± 6.6 µM. The Ki [4] was > 10 µM.
Oc1ccc2c3c1O[C@H]1c4[nH]c5c(c4C[C@@]4(O)[C@@H](C2)N(CC2CC2)CC[C@]314)C[C@@]1(O)[C@H]2Cc3ccc(O)c4c3[C@@]1(CCN2CC1CC1)[C@H]5O4 [nor-binaltorphimine] gave an IC50 [5] of 28.1 ± 27.2 nM.
